Legend:
[1] = system: Mut1 (RNase H inactive mutant of HIV-1 RT); assay: Gel mobility shifts in native polyacrylamide gel electrophoresis (PAGE); type: binding
From the text: (§1) In the following experiment, the terms “34-mer” and “35-mer” refer to SEQ ID NO:3 (produced in example A1 above) and SEQ ID NO:4 (produced in example A2 above), respectively. […] Natural RT molecules have an RNase H activity which normally cleaves RNA molecules. […] This mutant is produced according to the method given in Schatz, O., Cromme, F. V., Grüninger-Leitch, F. and Le Grice, S. F. J., Febs Letter. Vol.257, No.2 p.311-314. This RT-mutant is further on referred to as Mut1. The following experiments are carried out:
2. Gel mobility shifts in polyacrylamide gel electrophoresis (PAGE) experiments.
a) Native 20% PAGE gel is run at 4-5° C. Samples are incubated at 4° C. in 50 mM hepes buffer and 5 mM magnesium chloride and varying salt concentrations as indicated below.
Samples are incubated for 90 min at 4° C. prior to a further 10 min incubation at 4° C. with ammonium sulphate and/or KCl. Samples applied to lanes 4 and 5 have twice the amount of 34-mer used for the other samples.
b) Native 20% PAGE gel run at 4-5° C. Samples are incubated at 4° C. in 50 mM hepes buffer and 5 mM magnesium chloride, with varying concentrations of ammonium sulphate.
Native 20% PAGE gel is run at 4-5° C. Samples are incubated at 4° C. in 50 mM hepes buffer, 15 mM manganese sulphate, 1 mM EDTA and 0.25 mM EGTA.
Samples are incubated 10 min at room temperature prior to a 60 min incubation at 4° C. One μl of sample solution is applied per lane. Electrophoresis is conducted with up to 400 volts while cooling to approximately 4° C. After 0.209 kWh the gel is silver stained.

[2] = system: Mut1 (RNase H inactive mutant of HIV-1 RT); assay: Test of binding by gel filtration on a SMART system; conditions: starting amounts Mut1 210 pmol, oligonucleotide 630 pmol; Mut1 only 0.50 / 0.63
From the text: as §1
1. Test of binding by means of separation of the complex Mut1−34-mer (from Example A1) from excess 34-mer using gel filtration on a SMART system.
1. Mut1 is incubated with excess 34-mer for about 90 min at 4° C., buffer Tris-HCl, pH=8.0, containing 5 mM MgCl2. The mixture is then applied to a gel filtration column of a SMART™-type system, which allows simultaneous registration at two different wavelengths.
Starting amounts: Mut=210 pmol; 34-mer=630 pmol. The left peak is the complex Mut1−34-mer. The absorption at 260 nm (the upper curve) is now higher than the absorption at 280 nm (the lower curve): A260/A280=1.13. The right peak is the excess 34-mer, which has the characteristic absorption ratio for nucleic acids: A260/A280=2.01. […]

[3] = system: panel of recombinant HIV 1 subtype B RTs; assay: RT binding inhibition (BIC) assay, whole RT panel; conditions: all conditions studied
Experimental: (iii) Protocol for RT binding inhibition (BIC) assay: The study was performed in a modified DNA polymerase assay. The inhibitors were serially diluted in five steps, enzyme dilution was added and the enzyme/inhibitor mixtures were incubated for 30 minutes at 33° C. Aliquots of the enzyme/inhibitor mixture were transferred to each well of a microtiter plate containing either immobilised primer, or primer/template. The enzyme was allowed to bind to the immobilised polymer for 90 min at 33° C. The amount of RT used was standardised to an activity corresponding to 40-60 pg (3.3-5.0×10^−16 mol) reference HIV-1 RT per well. The plates were then washed to remove unbound enzyme whereupon the amount of bound enzyme was determined by addition of the appropriate reaction solution for polymerisation (i e a reaction solution devoid of primer for studies of primer binding and a reaction solution devoid of both primer and template for studies of binding to primed template). The polymerase reaction was allowed to proceed for 3 hours at 33° C., whereupon the reaction was terminated by a wash of the plate.
The capacity of the indicated substances to inhibit the binding to primer or to primed DNA template of a panel of recombinant HIV 1 subtype B RTs was studied according to “Protocol for RT binding inhibition (BIC) assay” (protocol (iii) above).

Compound	Gel mobility of Mut1 in complex with oligonucleotide ([1]; native 20% PAGE at 4-5° C.)	Complex with Mut1 at high salt concentrations ([1]; native 20% PAGE, ammonium sulphate up to […])	A260/A280 of the complex peak Mut1-oligonucleotide [2]	Capacity to prevent RT binding to primer or primed template [3]
34-mer: phosphorothioate RNA 34-mer corresponding to bases 10-43 in tRNALys3 with unmodified A, G, C and U nucleotides (example A1)	migrates faster than Mut1 alone	remains in complex with Mut1	1.13	
Cc1ccnc2c1NC(=O)c1cccnc1N2C1CC1 [Nevirapine]				unable to prevent RT binding

Reference: patent publication US20040053872A1, “New sequences” (priority 2000, published 2004)
